Laboratory results: patent US20140296146A1, “Thermostable Inhibitors of Activation of the Blood Clotting System Through Contact with Foreign Surfaces” (Synapse B.V., priority 2011, published 2014)

Key:
[1] = TICA1: dependence of activity on disulfides (FIG. 5); details: relative to TICA1 with 3 disulfides = 100%
Excerpt: FIG. 5: Thermostable Inhibitor of Coagulation Activation (TICA1): Dependence on Disulfides.

[2] = tested on: contact activation; assay: CAT assay at 0 pM TF on PPP from blood collection tubes with TICA added to tube or to assay; format: biochemical, human
Protocol: In 12 donors blood was drawn with 7 different drawing tubes with and without addition of TICA1 in the drawing tubes (total 14 tubes; 78 ml). After preparing PPP from these tubes, CAT measurements with MP reagent and pplow reagent was performed. One donor is measured in one plate. (pplow duplicate; MP duplicate; calibrator in 4 fold. Total volume is 320 μl sample/measurement in total 88 wells/donor.
In 12 donors blood is taken with the following commercial available drawing tubes: (From all blooddrawing tubes one tube with and one tube without TICA will be used to draw blood)
Final TICA concentration after blood drawing in every tube with added TICA is 30 μg/ml whole blood.
Final TICA concentration in plasma after preparing PPP is 60 μg/ml (assuming an hematocit of 50%)
CAT measurements with MP reagent and pplow reagent will be performed. One donor is measured in one plate. PPLow duplicate; MP duplicate; calibrator in 4 fold.
Total volume is 320 μl sample/measurement in total 88 wells/donor. NP2012 is also included in the measurement in 4 fold.
Lag times, Endogenous thrombin potentials, and peak height were recorded, For the current conditions of thrombin generation, peak height is the preferred parameter for interpretation of the results.
Plasma with TICA added: concentration in plasma: 60 μg/ml
Stock TICA: 1.5 mg/ml=>1500 μg/ml
20 μl TICA (stock: 1500 μg/ml) is added to 480 μl plasma.

[3] = TICA1 Ala-scan with intact disulfides, activity vs TICA1; details: single amino acid substituted by alanine
Excerpt: Every single amino acid was substituted by alanine except for cysteine. […] See also FIG. 6.

[4] = molecular target: T1, h-FXIIa (human, UniProt P00748 20-615); assay: S2302 hydrolysis by h-FXIIa (5.01 nM); inhibitor 30 min 95° C.
T1 construct: also called factor XIIa
T1 sequence (looked up): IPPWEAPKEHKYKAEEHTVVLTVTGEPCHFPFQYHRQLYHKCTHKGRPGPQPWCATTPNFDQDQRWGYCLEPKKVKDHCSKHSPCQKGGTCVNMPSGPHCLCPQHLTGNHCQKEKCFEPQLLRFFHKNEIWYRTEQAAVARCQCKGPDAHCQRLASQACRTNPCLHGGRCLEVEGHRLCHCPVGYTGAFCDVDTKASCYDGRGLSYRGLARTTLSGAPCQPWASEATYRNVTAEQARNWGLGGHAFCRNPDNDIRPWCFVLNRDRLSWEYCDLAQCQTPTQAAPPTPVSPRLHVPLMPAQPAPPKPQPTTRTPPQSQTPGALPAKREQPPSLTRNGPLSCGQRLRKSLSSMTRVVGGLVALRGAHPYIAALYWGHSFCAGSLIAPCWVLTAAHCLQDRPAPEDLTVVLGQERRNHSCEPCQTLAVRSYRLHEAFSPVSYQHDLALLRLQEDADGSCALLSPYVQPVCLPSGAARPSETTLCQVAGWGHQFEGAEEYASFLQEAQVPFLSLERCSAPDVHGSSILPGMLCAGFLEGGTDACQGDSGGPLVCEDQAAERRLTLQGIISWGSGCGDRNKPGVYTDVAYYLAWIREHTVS
Protocol: (§1) Stock FXIIa was diluted 700× in BSA5. The inhibitor was diluted in BSA5 as indicated. Wells contained 70 μl diluted FXIIa (5 nM final), 70 μl inhibitor and 20 μl S2302 (475 or 462.5 μM final). The reaction was started after 5 min heating on the heating plate with S2302. Filters 405 nm and 490 nm reference. Found ΔmA/min was multiplied by 2.14 to get the figure for a 1 cm path.

[5] = molecular target: T1, h-FXIIa; assay: S2302 hydrolysis by h-FXIIa (5.01 nM); inhibitor at RT during 72 hrs, against -80° C.
Protocol: as §1

[6] = TICA added to CAT assay, 60 μg/ml in plasma
[7] = TICA added to Tube, 30 μg/ml whole blood

What does the source list for `CC[C@H](C)[C@@H]1NC(=O)[C@H](CCCNC(=N)N)NC(=O)[C@@H]2CCCN2C(=O)[C@@H](NC(=O)[C@@H](NC(=O)[C@@H](N)CCCNC(=N)N)C(C)C)CSSC[C@@H]2NC(=O)[C@H](CCC(=O)O)NC(=O)[C@H](C)NC(=O)[C@H](CC(C)C)NC(=O)[C@@H]3CSSC[C@@H](C(=O)NCC(=O)O)NC(=O)[C@H](Cc4ccc(O)cc4)NC(=O)CNC(=O)[C@H](Cc4c[nH]cn4)NC(=O)[C@H](CCC(=O)O)NC(=O)[C@H](CC(C)C)NC(=O)[C@H](CSSC[C@H](NC(=O)[C@H](CCCCN)NC(=O)[C@H](CCSC)NC(=O)[C@H](CC(C)C)NC1=O)C(=O)N[C@@H](CCCCN)C(=O)N[C@@H](CCCCN)C(=O)N[C@@H](CC(=O)O)C(=O)N[C@@H](CO)C(=O)N[C@@H](CC(=O)O)C(=O)N3)NC(=O)[C@H](C(C)C)NC2=O` [TICA1]?
activity [1]: 100%; BD Glass 0 pM TF ETP (nM IIa · min) [2, 6]: 760 ± 526 nM IIa · min; BD Glass 0 pM TF Lagtime (min) [2, 6]: 38.8 ± 34.8 min; BD Glass 0 pM TF Peak Height (nM IIa) [2, 6]: 105 ± 81 nM IIa; BD Plastic 0 pM TF ETP (nM IIa · min) [2, 6]: 614 ± 538 nM IIa · min; BD Plastic 0 pM TF Lagtime (min) [2, 6]: 49.5 ± 37.7 min; BD Plastic 0 pM TF Peak Height (nM IIa) [2, 6]: 86 ± 87 nM IIa; Greiner 0 pM TF ETP (nM IIa · min) [2, 6]: 834 ± 449 nM IIa · min; Greiner 0 pM TF Lagtime (min) [2, 6]: 31.2 ± 26.7 min; Greiner 0 pM TF Peak Height (nM IIa) [2, 6]: 110 ± 70 nM IIa; Heamtech 0 pM TF ETP (nM IIa · min) [2, 6]: 666 ± 552 nM IIa · min; Heamtech 0 pM TF Lagtime (min) [2, 6]: 46.4 ± 39.7 min; Heamtech 0 pM TF Peak Height (nM IIa) [2, 6]: 93 ± 85 nM IIa; Sarstedt 0 pM TF ETP (nM IIa · min) [2, 6]: 279 ± 227 nM IIa · min; Sarstedt 0 pM TF Lagtime (min) [2, 6]: 50.0 ± 38.0 min; Sarstedt 0 pM TF Peak Height (nM IIa) [2, 6]: 26 ± 23 nM IIa; Terumo 0 pM TF ETP (nM IIa · min) [2, 6]: 276 ± 367 nM IIa · min; Terumo 0 pM TF Lagtime (min) [2, 6]: 64 ± 40.6 min; Terumo 0 pM TF Peak Height (nM IIa) [2, 6]: 33 ± 50 nM IIa; BD Glass 0 pM TF ETP (nM IIa · min) [2, 7]: 77 ± 119 nM IIa · min; BD Glass 0 pM TF Lagtime (min) [2, 7]: 76.6 ± 34.0 min; BD Glass 0 pM TF Peak Height (nM IIa) [2, 7]: 6 ± 9 nM IIa; BD Plastic 0 pM TF ETP (nM IIa · min) [2, 7]: 20 ± 61 nM IIa · min; BD Plastic 0 pM TF Lagtime (min) [2, 7]: 90.1 ± 26.8 min; BD Plastic 0 pM TF Peak Height (nM IIa) [2, 7]: 2 ± 6 nM IIa; Greiner 0 pM TF ETP (nM IIa · min) [2, 7]: 144 ± 164 nM IIa · min; Greiner 0 pM TF Lagtime (min) [2, 7]: 65.0 ± 34.8 min; Greiner 0 pM TF Peak Height (nM IIa) [2, 7]: 11 ± 13 nM IIa; Heamtech 0 pM TF ETP (nM IIa · min) [2, 7]: 289 ± 420 nM IIa · min; Heamtech 0 pM TF Lagtime (min) [2, 7]: 65.0 ± 34.8 min; Heamtech 0 pM TF Peak Height (nM IIa) [2, 7]: 36 ± 62 nM IIa; Sarstedt 0 pM TF ETP (nM IIa · min) [2, 7]: 140 ± 106 nM IIa · min; Sarstedt 0 pM TF Lagtime (min) [2, 7]: 52.5 ± 36.2 min; Sarstedt 0 pM TF Peak Height (nM IIa) [2, 7]: 10 ± 8 nM IIa; Terumo 0 pM TF ETP (nM IIa · min) [2, 7]: 59 ± 119 nM IIa · min; Terumo 0 pM TF Lagtime (min) [2, 7]: 75.7 ± 35.6 min; Terumo 0 pM TF Peak Height (nM IIa) [2, 7]: 5 ± 11 nM IIa; Activity vs TICA1 [3]: 100%

B1: Corn trypsin inhibitor (other, UniProt P01088 29-138, looked up)
chain: SAGTSCVPGWAIPHNPLPSCRWYVTSRTCGIGPRLPWPELKRRCCRELADIPAYCRCTALSILMDGAIPPGPDAQLEGRLEDLPGCPREVQRGFAATLVTEAECNLATIS
notes: also called CTI
With B1 as the molecule, how does the Ki [4] read?
Its Ki is 5.1 nM.

And the “Res. Act. (%)” value [5]?
Its value is 86%.
